The structures appear in SMILES notation.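 Tested at 5 concentrations; 48 h exposure; 96-well plates; endpoints linearly interpolated, else capped at highest concentration. GI50 is the concentration that inhibits growth by half. TGI: concentration producing complete growth inhibition.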

What all share (test): NCI anticancer screen, dose series, 48 h
In assay [1] the test system is 786-0 renal.
For assay [2], the system named is SF-268 CNS.
Assay [3] concerns IGROV1 ovarian.
In assay [4] the test system is NCI-H460 lung.
For assay [5], the system named is LOX IMVI melanoma.
Assay [6] concerns DU-145 prostate.
Assay [7] has as its system K-562 leukemia.
Assay [8] deals with HS 578T breast.

Consider `S=C1SC2=Nc3ccccc3CN2C2=NCCN12`, for which the GI50 in assay [1] was above 100 µM; in assay [2], above 100 µM; in assay [3], 7.88 µM; in assay [4] it was above 100 µM; in assay [5], 25.9 µM; in assay [6], above 100 µM. In addition, the GI50 in assay [7] was 32.8 µM. The TGI in assay [1] is above 100 µM; in assay [2], above 100 µM; in assay [3], above 100 µM; in assay [4] it was above 100 µM; in assay [5], 83.2 µM; in assay [6] it was above 100 µM. In assay [7], this compound gave a TGI above 100 µM.
On to `CO/N=C(/C)c1cccc(Nc2cc(-c3ccccc3)nc3ccc(OC)cc23)c1`, for which the GI50 in assay [1] was 3.18 µM; in assay [8], 27.6 µM; in assay [2], 3.64 µM; in assay [3], 26.2 µM; in assay [4], 7.07 µM; in assay [6], 12 µM. For the same compound, in assay [7], the GI50 is 2.72 µM. The TGI in assay [1] was 13.3 µM; in assay [8], 64.3 µM; in assay [2], 14.1 µM; in assay [3], above 100 µM; in assay [4], above 100 µM; in assay [6] it was 31.5 µM. Further, the TGI in assay [7] is above 100 µM.
For `Nc1ccc2[nH]cc(CCC(=O)O)c2c1`, the TGI in assay [1], in assay [8], in assay [2], in assay [3], in assay [5] and in assay [6] was above 100 µM throughout.
As to `O=C(N/N=C/c1ccc([N+](=O)[O-])o1)c1ccc(O)cc1`, the GI50 in assay [1] was 9.17 µM; in assay [8], 21.7 µM; in assay [2], 6.73 µM; in assay [3] it was 5.19 µM; in assay [4], 3.37 µM; in assay [5] it was 2.15 µM. In assay [6], the GI50 is 6.38 µM. The TGI is 21.4 µM in assay [1]; above 100 µM in assay [8]; above 100 µM in assay [2]; 23.1 µM in assay [3]; above 100 µM in assay [4]; 16.9 µM in assay [5]. For the same compound, the TGI in assay [6] was above 100 µM.
Consider `C[C@H]1CCC/C=C/[C@@H]2C[C@H](O)C[C@H]2[C@H](O)[C@@H](SCC(O)CO)CC(=O)O1` (some centres undefined), for which the GI50 in assay [1] was 2.75 µM; in assay [8] it was 9.52 µM; in assay [2], 10.9 µM; in assay [3] it was 37.2 µM; in assay [4], 26.3 µM; in assay [6] it was 17.8 µM. Further, in assay [7], the GI50 is 40.3 µM. Besides, the TGI was 15 µM in assay [1]; above 100 µM in assay [8]; above 100 µM in assay [2]; above 100 µM in assay [3]; above 100 µM in assay [4]; 39.2 µM in assay [6]. The same compound registered a TGI in assay [7] above 100 µM.
Take `CC(C)C1=C2CCC3(C)C(CCC4C5C6OCC5(CCC6(C)C)CCC43C)C2(C)CC1` (centres undefined): the TGI was 33.7 µM in assay [1]; 51.3 µM in assay [8]; 69.9 µM in assay [2]; 29.2 µM in assay [3]; 31.8 µM in assay [4]; 28.7 µM in assay [5]. This compound also showed a TGI in assay [6] of 37.5 µM.
As for `N#Cc1ccc(OC(=O)Nc2ccc(Cl)c(Cl)c2)cc1`, the GI50 in assay [1] is 4.83 µM; in assay [8], 5.02 µM; in assay [2], 5.27 µM; in assay [3], 4.04 µM; in assay [4], 2.87 µM; in assay [6] it was 4.13 µM. Besides, the GI50 in assay [7] was 3.4 µM. Further, the TGI in assay [1] is 61.2 µM; in assay [8] it was 28.9 µM; in assay [2], above 100 µM; in assay [3] it was above 100 µM; in assay [4], 9.34 µM; in assay [6] it was above 100 µM. In assay [7], the TGI is above 100 µM.
For the compound `C=CCN1CC2CON(C(=O)C(OC)(c3ccccc3)C(F)(F)F)C2C1C(C)C` (centres undefined), the GI50 was 26.7 µg/mL in assay [1]; 37.4 µg/mL in assay [8]; 70.5 µg/mL in assay [2]; 56.9 µg/mL in assay [3]; 28.9 µg/mL in assay [4]; 26.6 µg/mL in assay [5]. The GI50 in assay [6] is 54 µg/mL.
With `CCC(=O)Nc1ccc(N=NN(C)C)cc1`, the TGI in assay [1], in assay [8], in assay [2], in assay [4], in assay [5] and in assay [6] was above 100 µM in each case. The same compound had a TGI in assay [7] above 100 µM.
Take `Nc1ccc2nc3n(c2c1)C(=O)c1ccccc1-3`: the TGI in assay [1], in assay [2], in assay [3], in assay [4], in assay [6] and in assay [7] was above 100 µM each time.
`Cc1ccc(S(=O)(=O)NC(=O)NC2=NC(C)(C)N(c3ccc(Cl)c(Cl)c3)C(N)=N2)cc1`: the TGI in assay [1], in assay [8], in assay [2], in assay [3], in assay [4] and in assay [6] was above 100 µM each time. This compound had a TGI in assay [7] above 100 µM.
Turning to `Clc1cc(Cl)cc(Nc2ccc3cc(OCCCN4CCOCC4)ccc3n2)c1`, the GI50 in assay [1] is 1.58 µM; in assay [8] it was 1.99 µM; in assay [2], 2.9 µM; in assay [3], 3.47 µM; in assay [5], 1.62 µM; in assay [6], 3.05 µM. For the same compound, in assay [7], the GI50 was 1.58 µM. The TGI in assay [1] was 3.11 µM; in assay [8], 5.43 µM; in assay [2] it was above 100 µM; in assay [3], above 100 µM; in assay [5], 3.05 µM; in assay [6] it was above 100 µM. The TGI in assay [7] came out at 4.42 µM.
Take `O=C(O)CN(c1ccccc1)S(=O)(=O)c1ccc([N+](=O)[O-])cc1`: the TGI in assay [1], in assay [3], in assay [4], in assay [5] and in assay [7] was above 100 µM each time.
